Test results taken from ChEMBL document CHEMBL5244269, “Improving metabolic stability and removing aldehyde oxidase liability in a 5-azaquinazoline series of IRAK4 inhibitors” (Bioorg Med Chem, 2020).

Tests used:
Assay type in all cases: functional
[1] = tested on: SUD4; assay: Growth inhibition of human SU-DHL-4 cells at 1.7 uM incubated for 3 days in presence of 0.033 uM acalabrutinib relative to control; settings: SU-DHL-4, 72 h, time 3 day, read-out: GI
[2] = tested on: SUD4; assay: Growth inhibition of human SU-DHL-4 cells at 1.7 uM incubated for 3 days in presence of 0.017 uM acalabrutinib relative to control; settings: SU-DHL-4, 72 h, time 3 day, read-out: GI
[3] = tested on: SUD4; assay: Growth inhibition of human SU-DHL-4 cells at 1.7 uM incubated for 3 days in presence of 0.003 uM acalabrutinib relative to control; settings: SU-DHL-4, 72 h, time 3 day, read-out: GI
[4] = tested on: SUD4; assay: Growth inhibition of human SU-DHL-4 cells at 0.33 uM incubated for 3 days in presence of 0.33 uM acalabrutinib relative to control; settings: SU-DHL-4, 72 h, time 3 day, read-out: GI
[5] = tested on: SUD4; assay: Growth inhibition of human SU-DHL-4 cells at 0.33 uM incubated for 3 days in presence of 0.17 uM acalabrutinib relative to control; settings: SU-DHL-4, 72 h, time 3 day, read-out: GI
[6] = tested on: SUD4; assay: Growth inhibition of human SU-DHL-4 cells at 0.33 uM incubated for 3 days in presence of 0.033 uM acalabrutinib relative to control; settings: SU-DHL-4, 72 h, time 3 day, read-out: GI
[7] = tested on: SUD4; assay: Growth inhibition of human SU-DHL-4 cells at 0.33 uM incubated for 3 days in presence of 0.017 uM acalabrutinib relative to control; settings: SU-DHL-4, 72 h, time 3 day, read-out: GI
[8] = tested on: SUD4; assay: Growth inhibition of human SU-DHL-4 cells at 0.17 uM incubated for 3 days in presence of 0.33 uM acalabrutinib relative to control; settings: SU-DHL-4, 72 h, time 3 day, read-out: GI
[9] = tested on: SUD4; assay: Growth inhibition of human SU-DHL-4 cells at 0.33 uM incubated for 3 days in presence of 0.003 uM acalabrutinib relative to control; settings: SU-DHL-4, 72 h, time 3 day, read-out: GI
[10] = tested on: SUD4; assay: Growth inhibition of human SU-DHL-4 cells at 0.17 uM incubated for 3 days in presence of 0.17 uM acalabrutinib relative to control; settings: SU-DHL-4, 72 h, time 3 day, read-out: GI
[11] = tested on: SUD4; assay: Growth inhibition of human SU-DHL-4 cells at 0.17 uM incubated for 3 days in presence of 0.033 uM acalabrutinib relative to control; settings: SU-DHL-4, 72 h, time 3 day, read-out: GI
[12] = tested on: OCI-Ly10; assay: Growth inhibition of human OCILY10 cells at 0.17 uM incubated for 3 days in presence of 0.003 uM acalabrutinib relative to control; settings: OCI-Ly10, 72 h, time 3 day, read-out: GI
[13] = tested on: OCI-Ly10; assay: Growth inhibition of human OCILY10 cells at 0.17 uM incubated for 3 days in presence of 0.017 uM acalabrutinib relative to control; settings: OCI-Ly10, 72 h, time 3 day, read-out: GI
[14] = tested on: OCI-Ly10; assay: Growth inhibition of human OCILY10 cells at 0.17 uM incubated for 3 days in presence of 0.033 uM acalabrutinib relative to control; settings: OCI-Ly10, 72 h, time 3 day, read-out: GI
[15] = tested on: OCI-Ly10; assay: Growth inhibition of human OCILY10 cells at 0.17 uM incubated for 3 days in presence of 0.17 uM acalabrutinib relative to control; settings: OCI-Ly10, 72 h, time 3 day, read-out: GI
[16] = tested on: OCI-Ly10; assay: Growth inhibition of human OCILY10 cells at 0.17 uM incubated for 3 days in presence of 0.33 uM acalabrutinib relative to control; settings: OCI-Ly10, 72 h, time 3 day, read-out: GI
[17] = tested on: OCI-Ly10; assay: Growth inhibition of human OCILY10 cells at 0.33 uM incubated for 3 days in presence of 0.003 uM acalabrutinib relative to control; settings: OCI-Ly10, 72 h, time 3 day, read-out: GI
[18] = tested on: OCI-Ly10; assay: Growth inhibition of human OCILY10 cells at 0.33 uM incubated for 3 days in presence of 0.017 uM acalabrutinib relative to control; settings: OCI-Ly10, 72 h, time 3 day, read-out: GI
[19] = tested on: OCI-Ly10; assay: Growth inhibition of human OCILY10 cells at 0.33 uM incubated for 3 days in presence of 0.033 uM acalabrutinib relative to control; settings: OCI-Ly10, 72 h, time 3 day, read-out: GI
[20] = tested on: OCI-Ly10; assay: Growth inhibition of human OCILY10 cells at 1.7 uM incubated for 3 days in presence of 0.003 uM acalabrutinib relative to control; settings: OCI-Ly10, 72 h, time 3 day, read-out: GI
[21] = tested on: OCI-Ly10; assay: Growth inhibition of human OCILY10 cells at 1.7 uM incubated for 3 days in presence of 0.17 uM acalabrutinib relative to control; settings: OCI-Ly10, 72 h, time 3 day, read-out: GI
[22] = tested on: OCI-Ly10; assay: Growth inhibition of human OCILY10 cells at 1.7 uM incubated for 3 days in presence of 0.33 uM acalabrutinib relative to control; settings: OCI-Ly10, 72 h, time 3 day, read-out: GI
[23] = tested on: OCI-Ly10; assay: Growth inhibition of human OCILY10 cells at 3.3 uM incubated for 3 days in presence of 0.003 uM acalabrutinib relative to control; settings: OCI-Ly10, 72 h, time 3 day, read-out: GI
[24] = tested on: OCI-Ly10; assay: Growth inhibition of human OCILY10 cells at 3.3 uM incubated for 3 days in presence of 0.017 uM acalabrutinib relative to control; settings: OCI-Ly10, 72 h, time 3 day, read-out: GI
[25] = tested on: OCI-Ly10; assay: Growth inhibition of human OCILY10 cells at 3.3 uM incubated for 3 days in presence of 0.033 uM acalabrutinib relative to control; settings: OCI-Ly10, 72 h, time 3 day, read-out: GI
[26] = tested on: OCI-Ly10; assay: Growth inhibition of human OCILY10 cells at 3.3 uM incubated for 3 days in presence of 0.33 uM acalabrutinib relative to control; settings: OCI-Ly10, 72 h, time 3 day, read-out: GI
[27] = tested on: OCI-Ly10; assay: Growth inhibition of human OCILY10 cells at 10 uM incubated for 3 days in presence of 0.003 uM acalabrutinib relative to control; settings: OCI-Ly10, 72 h, time 3 day, read-out: GI
[28] = tested on: OCI-Ly10; assay: Growth inhibition of human OCILY10 cells at 10 uM incubated for 3 days in presence of 0.017 uM acalabrutinib relative to control; settings: OCI-Ly10, 72 h, time 3 day, read-out: GI
[29] = tested on: OCI-Ly10; assay: Growth inhibition of human OCILY10 cells at 10 uM incubated for 3 days in presence of 0.033 uM acalabrutinib relative to control; settings: OCI-Ly10, 72 h, time 3 day, read-out: GI
[30] = tested on: OCI-Ly10; assay: Growth inhibition of human OCILY10 cells at 10 uM incubated for 3 days in presence of 0.17 uM acalabrutinib relative to control; settings: OCI-Ly10, 72 h, time 3 day, read-out: GI
[31] = tested on: OCI-Ly10; assay: Growth inhibition of human OCILY10 cells at 10 uM incubated for 3 days in presence of 0.33 uM acalabrutinib relative to control; settings: OCI-Ly10, 72 h, time 3 day, read-out: GI
[32] = tested on: SUD4; assay: Growth inhibition of human SU-DHL-4 cells at 1.7 uM incubated for 3 days in presence of 0.17 uM acalabrutinib relative to control; settings: SU-DHL-4, 72 h, time 3 day, read-out: GI
[33] = tested on: SUD4; assay: Growth inhibition of human SU-DHL-4 cells at 1.7 uM incubated for 3 days in presence of 0.33 uM acalabrutinib relative to control; settings: SU-DHL-4, 72 h, time 3 day, read-out: GI
[34] = tested on: SUD4; assay: Growth inhibition of human SU-DHL-4 cells at 3.3 uM incubated for 3 days in presence of 0.003 uM acalabrutinib relative to control; settings: SU-DHL-4, 72 h, time 3 day, read-out: GI
[35] = tested on: SUD4; assay: Growth inhibition of human SU-DHL-4 cells at 3.3 uM incubated for 3 days in presence of 0.017 uM acalabrutinib relative to control; settings: SU-DHL-4, 72 h, time 3 day, read-out: GI
[36] = tested on: SUD4; assay: Growth inhibition of human SU-DHL-4 cells at 3.3 uM incubated for 3 days in presence of 0.17 uM acalabrutinib relative to control; settings: SU-DHL-4, 72 h, time 3 day, read-out: GI
[37] = tested on: SUD4; assay: Growth inhibition of human SU-DHL-4 cells at 3.3 uM incubated for 3 days in presence of 0.33 uM acalabrutinib relative to control; settings: SU-DHL-4, 72 h, time 3 day, read-out: GI
[38] = tested on: SUD4; assay: Growth inhibition of human SU-DHL-4 cells at 10 uM incubated for 3 days in presence of 0.017 uM acalabrutinib relative to control; settings: SU-DHL-4, 72 h, time 3 day, read-out: GI
[39] = tested on: SUD4; assay: Growth inhibition of human SU-DHL-4 cells at 10 uM incubated for 3 days in presence of 0.033 uM acalabrutinib relative to control; settings: SU-DHL-4, 72 h, time 3 day, read-out: GI
[40] = tested on: SUD4; assay: Growth inhibition of human SU-DHL-4 cells at 10 uM incubated for 3 days in presence of 0.17 uM acalabrutinib relative to control; settings: SU-DHL-4, 72 h, time 3 day, read-out: GI
[41] = tested on: SUD4; assay: Growth inhibition of human SU-DHL-4 cells at 10 uM incubated for 3 days in presence of 0.33 uM acalabrutinib relative to control; settings: SU-DHL-4, 72 h, time 3 day, read-out: GI

For `Cc1ncc(-c2nc3c(OC4(C)CC4)nc(Nc4cnn(C5CCN(C)CC5)c4)nc3cc2F)cn1`, the inhibition of growth at 1.7 µM [1] was -4%, the inhibition of growth at 1.7 µM [2] was 0% and the inhibition of growth at 1.7 µM [3] was -1%. It also gave an inhibition of growth at 0.33 µM [4] of -1%, an inhibition of growth at 0.33 µM [5] of -2% and an inhibition of growth at 0.33 µM [6] of -3%. It also gave an inhibition of growth at 0.33 µM [7] of 1%, an inhibition of growth at 0.17 µM [8] of -2% and an inhibition of growth at 0.33 µM [9] of 0%. It also gave an inhibition of growth at 0.17 µM [10] of -3%, an inhibition of growth at 0.17 µM [11] of -4% and an inhibition of growth at 0.17 µM [12] of 24%. For the same compound, the inhibition of growth at 0.17 µM [13] was 92%, the inhibition of growth at 0.17 µM [14] was 117% and the inhibition of growth at 0.17 µM [15] was 147%. It also gave an inhibition of growth at 0.17 µM [16] of 138%, an inhibition of growth at 0.33 µM [17] of 33% and an inhibition of growth at 0.33 µM [18] of 122%. The inhibition of growth at 0.33 µM [19] was 155%, the inhibition of growth at 1.7 µM [20] was 93% and the inhibition of growth at 1.7 µM [21] was 190%. For the same compound, the inhibition of growth at 1.7 µM [22] was 193%, the inhibition of growth at 3.3 µM [23] was 156% and the inhibition of growth at 3.3 µM [24] was 194%. The inhibition of growth at 3.3 µM [25] was 194%, the inhibition of growth at 3.3 µM [26] was 194% and the inhibition of growth at 10 µM [27] was 195%. The inhibition of growth at 10 µM [28] was 198%, the inhibition of growth at 10 µM [29] was 197% and the inhibition of growth at 10 µM [30] was 199%. For the same compound, the inhibition of growth at 10 µM [31] was 197%, the inhibition of growth at 1.7 µM [32] was -3% and the inhibition of growth at 1.7 µM [33] was -2%. For the same compound, the inhibition of growth at 3.3 µM [34] was -1%, the inhibition of growth at 3.3 µM [35] was 0% and the inhibition of growth at 3.3 µM [36] was -3%. The inhibition of growth at 3.3 µM [37] was -2%, the inhibition of growth at 10 µM [38] was 2% and the inhibition of growth at 10 µM [39] was -2%. For the same compound, the inhibition of growth at 10 µM [40] was -1% and the inhibition of growth at 10 µM [41] was 0%.
